Results on four molecules are retold here after patent US20260109725A1, “MACROLIDE SENOLYTIC COMPOUNDS” (LUNELLA BIOTECH, INC., priority 2022, published 2026).

The test system of assay [1] is MRC-5 cells treated with BrdU (senescent fibroblasts). In words: SRB assay, BrdU-treated (senescent) MRC-5 cells. The assay is classed as cell-based, human. As for the experimental part:
(§1) For example, in one assay bromodeoxyuridine (5-bromo-2′-deoxyuridine), also known as BrdU, was used to induce senescence in a cell population. BrdU is an analog of the nucleoside thymidine commonly used to identify proliferating cells. BrdU induces controlled DNA damage, and drives cells towards senescence with high efficiency. In the BrdU assay, normal fibroblasts are subjected to prolonged culture (8-days) in the presence of BrdU at 100 μM to induce controlled DNA-damage and senescence. […] Senolytic activity was assessed using the sulforhodamine B assay, also known in the art as the SRB assay. This assay measures the amount of protein remaining attached to the tissue-culture dishes, and is a surrogate marker for cell viability.
(§2) FIG. 1 compares SRB assay results for different concentrations of Azithromycin (100 µM and 50 μM) and Compound [I] (100 μM and 50 μM) of the present approach, on both control MRC-5 cells and MRC-5 cells treated with BrdU. […] (labelled as “Azi-Gal” in FIG. 1) for another 5 days. After that, the SRB assay was performed to determine the effects of the drug on cell viability, using normal MRC-5 cells as the control. […] However, at 50 μM Azithromycin had no effect on either the control cells or senescent cells.
(§3) BrdU Assay: Cells were plated into 24-well plates. Next day, half of the plate was treated with 100 μM of BrdU while control wells were treated with vehicle only (DMSO) and incubated for 8 days at 37° C. in a 5% CO2 humidified atmosphere. After 8 days of BrdU treatment cells were treated with various test compounds or drugs (e.g., azithromycin, roxithromycin, telithromycin, erythromycin, etc.) for another 3-5 days. BrdU or vehicle treatments were continued during the drug treatments as well.
(§4) Sulphorhodamine B assay: After the incubation of the plates cell viability was measured by Sulphorhodamine B assay (SRB). The assay is based on the measurement of cellular protein contents. Cells were fixed with 10% Trichloroacetic acid (TCA) for 1 hour at […], and were dried overnight at room temperature. Then, plates were incubated with SRB for 30 min, washed twice with 1% acetic acid and air dried for at least 1 h. Finally, the protein-bound dye was dissolved in a 10 mM Tris, pH 8.8, solution and read using a plate reader at 540-nm.
In general terms: Sulforhodamine B stains cellular protein and so reports cell mass.

Assay [2] has as its system control MRC-5 cells (normal lung fibroblasts). Briefly: SRB assay, control (normal) MRC-5 cells. It counts as cell-based, human. As for the experimental part:
as §1, §2, §3, §4

Assay [3] has as its system Acinetobacter baumannii ATCC 17978. Briefly: in vitro broth microdilution assay (MIC). The assay is classed as cell-based. The conditions noted are these: ATCC17978. As for the experimental part: (§5) This is advantageous because use of the compounds of the present approach as therapeutic agents will have less of an impact on the development of antibiotic resistance. For example, embodiments of the present approach were screened for antibiotic activity, using the in vitro broth microdilution assay. […] The assay conditions, described by the Clinical and Laboratory Standards Institute were used for preparation of the inoculum, growth medium, and end point reading. Test substance was dissolved in 100% DMSO, suspended completely by vortexing, diluted by 2-fold serial titrations in the same vehicle, for a total of 11 test concentrations. A 4 μL aliquot of each dilution was added to 196 μL of broth medium seeded with the organism suspension in wells of a 96 well plate (bacterial count: 2-8×10(5) colony forming units/mL final). The final volume was 200 μL in each well and the final DMSO concentration was 2 percent. Test concentrations were 0.1 to 100 μM. Following incubation, the test plates were visually examined and wells were scored for growth or complete growth inhibition to define the minimum inhibitory concentration. Each test substance was evaluated with replicates. Vehicle controls and an active reference agent were used as blank and positive controls. Note that MRSA represents methicillin-resistant Staphylococcus aureus, and VRE represents vancomycin resistant Enterococcus.

Assay [4] has as its system Enterococcus faecalis ATCC 29212. In words: in vitro broth microdilution assay (MIC). The conditions noted are these: ATCC29212; Enterococcus faecalis ATCC 29212, QC strain. It counts as cell-based. The procedure:
as §5

For assay [5], the system named is Enterococcus faecium ATCC 700221 VanA VRE. In words: in vitro broth microdilution assay (MIC). The assay is classed as cell-based. As for the experimental part:
as §5
(In general: Dilution methods test growth across graded concentrations, often in twofold steps.)

In assay [6] the test system is Escherichia coli ATCC 25922. Briefly: in vitro broth microdilution assay (MIC). The assay is classed as cell-based. The conditions noted are these: ATCC25922; Escherichia coli ATCC 25922, QC strain. The procedure: as §5
The subject of assay [7] is Escherichia coli JW5503 DEL-tolC. In words: in vitro broth microdilution assay (MIC). The assay is classed as cell-based. The following applies: JW5503DELTOLC. The procedure: as §5
The subject of assay [8] is Haemophilus influenzae ATCC 49247. Briefly: in vitro broth microdilution assay (MIC). It counts as cell-based. The following applies: ATCC49247; Haemophilus influenzae ATCC 49247, QC strain. The procedure: as §5
The test system of assay [9] is Klebsiella pneumoniae ATCC 43816. In words: in vitro broth microdilution assay (MIC). The assay is classed as cell-based. The following applies: ATCC43816. The procedure: as §5
Assay [10] has as its system Pseudomonas aeruginosa ATCC 27853. In words: in vitro broth microdilution assay (MIC). The assay is classed as cell-based. The following applies: ATCC27853; Pseudomonas aeruginosa ATCC 27853, QC strain. The procedure:
as §5

Assay [11] relates to Staphylococcus aureus ATCC 29213. Briefly: in vitro broth microdilution assay (MIC). It counts as cell-based. The following applies: ATCC29213; Staphylococcus aureus ATCC 29213, QC strain. The procedure:
as §5

Assay [12] deals with Staphylococcus aureus ATCC 33591 MRSA. Briefly: in vitro broth microdilution assay (MIC). It counts as cell-based. As for the experimental part:
as §5

Assay [13] concerns Streptococcus pneumoniae ATCC 49619. Briefly: in vitro broth microdilution assay (MIC). The assay is classed as cell-based. The following applies: ATCC49619; Streptococcus pneumoniae ATCC 49619, QC strain. As for the experimental part: as §5
Assay [14] has as its system MCF-7 cells. In words: mammosphere formation assay (3D anchorage independent growth). The assay is classed as cell-based, human. As for the experimental part:
The compounds disclosed herein may also be used as therapeutic agent to selectively eradicate CSCs for treating and/or preventing tumor recurrence and/or metastasis. […] This assay measures the amount of residual protein that adheres to tissue culture dishes and is a surrogate marker of cell viability.
3D Anchorage Independent Growth Assay: This assay is also referred to as the mammosphere formation assay. A single-cell suspension was prepared using enzymatic, and manual disaggregation (25-g needle). Then, cells were plated at a density of 500 cells/cm^2 in mammosphere medium (DMEM-F12+1X B-27 Plus Supplement+20 ng/ml EGF+Pen/Strep) under non-adherent conditions, in culture dishes pre-coated with (2-hydroxyethylmethacrylate) (poly-HEMA, Sigma Aldrich Inc.), called “mammosphere plates.” Cells were grown for 5 days and maintained in a humidified incubator at 37° C. After 5 days of culture, 3D-mammospheres >50 μm were counted using an eye piece (“graticule”), and the percentage of cells plated which formed spheres was calculated and is referred to as percent mammosphere formation, and was normalized to one (1=100% MFE). 3D mammosphere formation efficiency (MFE) was analyzed in both the ATP-low and ATP-high sub-populations of cells. All 3D mammosphere experiments were performed in triplicate, at least 3 times independently.

Where [15] appears, read: SRB, control vs BrdU-treated MRC5.

Values after ≈ are worked out from the molar mass of the structure shown.

On to `CC[C@H]1OC(=O)[C@H](C)[C@@H](O[C@@H]2C[C@@](C)(OC)[C@@H](O)[C@H](C)O2)[C@H](C)[C@@H](O[C@@H]2O[C@H](C)C[C@H](N(C)C)[C@H]2OC(=O)CCC(=O)OCc2ccc(O[C@@H]3O[C@H](COC(C)=O)[C@H](OC(C)=O)[C@H](OC(C)=O)[C@H]3OC(C)=O)c([N+](=O)[O-])c2)[C@](C)(O)C[C@@H](C)CN(C)[C@H](C)[C@@H](O)[C@]1(C)O` [Compound [III], O4-[(2S,3R,4S,6R)-4-(dimethylamino)-2-[[(2R,3S,4R,5R,8R,10R,11R,12S,13S,14R)-2-ethyl-3,4,10-trihydroxy-13-[(2S,4R,5S,6S)-5-hydroxy-4-methoxy-4,6-dimethyl-tetrahydropyran-2-yl]oxy-3,5,6,8,10,12,14-heptamethyl-15-oxo-1-oxa-6-azacyclopentadec-11-yl]oxy]-6-methyl-tetrahydropyran-3-yl] O1-[[3-nitro-4-[(2S,3R,4S,5S,6R)-3,4,5-triacetoxy-6-(acetoxymethyl)tetrahydropyran-2-yl]oxy-phenyl]methyl]butanedioate], for which, in assay [1] (setting [15]), the “potency relative to the parent compound, Azithromycin (SRB)” value is “about half”; the “senolytic activity compared to Azithromycin and Compound [I]” value is “significantly less senolytic activity”.
For the molecule `CC[C@H]1OC(=O)[C@H](C)[C@@H](O[C@@H]2C[C@@](C)(OC)[C@@H](O)[C@H](C)O2)[C@H](C)[C@@H](O[C@@H]2O[C@H](C)C[C@H](N(C)C)[C@H]2OC(=O)OCc2ccc(O[C@@H]3O[C@H](COC(C)=O)[C@H](OC(C)=O)[C@H](OC(C)=O)[C@H]3OC(C)=O)c([N+](=O)[O-])c2)[C@](C)(O)C[C@@H](C)C(=O)[C@H](C)[C@@H](O)[C@]1(C)O` [Compound [VI], 2R,3S,4S,5R,6S)-3,4,5-triacetoxy-6-[4-[[(2S,3R,4S,6R)-4-(dimethylamino)-2-[[(3R,4S,5S,6R,7R,9R,11R,12R,13S,14R)-14-ethyl-7,12,13-trihydroxy-4-[(2S,4R,5S,6S)-5-hydroxy-4-methoxy-4,6-dimethyl-tetrahydropyran-2-yl]oxy-3,5,7,9,11,13-hexamethyl-2,10-dioxo-oxacyclotetradec-6-yl]oxy]-6-methyl-tetrahydropyran-3-yl]oxycarbonyloxymethyl]-2-nitro-phenoxy]tetrahydropyran-2-yl]methyl acetate], in [2] (compared to Roxithromycin and Erythromycin), the “preference for normal, non-senescent control cells (SRB)” value is listed as “preference for the normal, non-senescent control cells”. Moreover, the “effect on the senescent cells (SRB)” value in [1] (BrdU-treated MRC5) was “little effect”.
For orientation: IC50 means the concentration that gives 50% inhibition. Lower therefore signals higher potency. As to `CC[C@H]1OC(=O)[C@H](C)[C@@H](O[C@H]2C[C@@](C)(OC)[C@@H](O)[C@H](C)O2)[C@H](C)[C@@H](O[C@@H]2O[C@H](C)C[C@H](N(C)C)[C@H]2O)[C@](C)(O)C[C@@H](C)CN(C)[C@H](C)[C@@H](O)[C@]1(C)O` [Azithromycin, reference compound], the MIC in [3] was 6.25 µM (≈ 4.68 µg/mL); in assay [4], 6.25 µM (≈ 4.68 µg/mL); in [5], over 100 µM; in [6], 6.25 µM (≈ 4.68 µg/mL); in [7] it was 1.56 µM (≈ 1.17 µg/mL); in [8] it was 3.12 µM (≈ 2.34 µg/mL). Also, the MIC in assay [9] is 25 µM (≈ 18.7 µg/mL); in assay [10], 100 µM (≈ 74.9 µg/mL); in assay [11], 1.56 µM (≈ 1.17 µg/mL); in assay [12] it was over 100 µM; in [13], 0.39 µM (≈ 0.292 µg/mL). In assay [2] (50 μM, 5 days), the “effect on control cells (SRB)” value was “no effect”. Moreover, in assay [2] (100 μM, 5 days), the “effect on viability of normal MRC-5 lung fibroblasts (SRB)” value is “no effect”. Also, the “effect on senescent cells (SRB)” value in [1] (50 μM, 5 days after 8 days BrdU) is “no effect”. Besides, the “effect on senescent MRC-5 fibroblasts (SRB)” value in [1] (100 μM, 5 days after 8 days BrdU) is listed as “selectively killed”. The “inhibition of MCF-7 cells compared to the control (mammosphere formation)” value in assay [14] (200 μM) was “about 30%”. For the same molecule, in assay [14] (Homo sapiens, MCF7), the IC50 is 118 µM.
As for `CC[C@H]1OC(=O)[C@H](C)[C@@H](O[C@@H]2C[C@@](C)(OC)[C@@H](O)[C@H](C)O2)[C@H](C)[C@@H](O[C@@H]2O[C@H](C)C[C@H](N(C)C(=O)OCc3ccc(O[C@@H]4O[C@H](COC(C)=O)[C@H](OC(C)=O)[C@H](OC(C)=O)[C@H]4OC(C)=O)c([N+](=O)[O-])c3)[C@H]2O)[C@](C)(O)C[C@@H](C)CN(C)[C@H](C)[C@@H](O)[C@]1(C)O` [Compound [IV], [(2R,3S,4S,5R,6S)-3,4,5-triacetoxy-6-[4-[[[(2S,3R,4S,6R)-2-[[(2R,3S,4R,5R,8R,10R,11R,12S,13S,14R)-2-ethyl-3,4,10-trihydroxy-13-[(2S,4R,5S,6S)-5-hydroxy-4-methoxy-4,6-dimethyl-tetrahydropyran-2-yl]oxy-3,5,6,8,10,12,14-heptamethyl-15-oxo-1-oxa-6-azacyclopentadec-11-yl]oxy]-3-hydroxy-6-methyl-tetrahydropyran-4-yl]-methyl-carbamoyl]oxymethyl]-2-nitro-phenoxy]tetrahydropyran-2-yl]methyl acetate], the “selectivity for senescent cells over normal, non-senescent cells (SRB)” value in [1] (control vs BrdU-treated MRC5) is reported as “no little selectivity”.
